Test results published in patent US20180040391A1, “GAS-INSULATED MEDIUM-OR HIGH-VOLTAGE ELECTRICAL APPARATUS INCLUDING HEPTAFLUOROISOBUTYRONITRILE AND TETRAFLUOROMETHANE” (General Electric Technology GmbH, priority 2015, published 2018).
Read-outs that look alike come from different tables or passages of the source.

How the values were obtained:
[1] = saturated vapor pressure of i-C3F7CN and corresponding pressure raised to 20° C.; assay type: physicochemical
Protocol: However, since equipment is usually filled with gas at ambient temperature, the pressure to which reference is made in order to fill the equipment with heptafluoroisobutyronitrile is the pressure PTfill that corresponds, at the filling temperature, e.g. 20° C., to the PVS presented by said compound at the lowest utilization temperature Tmin of said equipment. This correspondence is given, for each compound, by the formula: […]
with Tmin expressed in kelvins.
By way of example, the Table II below gives the saturated vapor pressures, referenced PVSi-C3F7CN and expressed in hectopascals, presented by heptafluoroisobutyronitrile at temperatures of 0° C., −5° C., −10° C., −15° C., −20° C., −25° C., −30° C., −35° C., and −40° C., as well as the pressures, referenced P and expressed in hectopascals, which correspond to those saturated vapor pressures raised to 20° C.

[2] = boiling point (ASTM D1120-94); assay type: physicochemical; conditions: at 1013 hPa
Protocol: (i) a boiling point of −4.7° C. at 1013 hectopascals (hPa) (boiling point measured in accordance with ASTM D1120-94 “Standard Test Method of Boiling Point of Engine Coolants”);
(i′) a boiling point of −127.8° C. at 1013 hPa (boiling point measured in accordance with ASTM D1120-94);

[3] = fluids of WO 2012/080246; cited from earlier work

Structure (SMILES)	PVSi-C3F7CN saturated vapor pressure ([1]; 0° C.) [hPa]	Pi-C3F7CN pressure corresponding to the saturated vapor pressure raised to 20° C. ([1]; PVS at 0° C. raised to 20° C.) [hPa]	Pi-C3F7CN pressure corresponding to the saturated vapor pressure raised to 20° C. ([1]; PVS at −5° C. raised to 20° C.) [hPa]	Pi-C3F7CN pressure corresponding to the saturated vapor pressure raised to 20° C. ([1]; PVS at −10° C. raised to 20° C.) [hPa]	Pi-C3F7CN pressure corresponding to the saturated vapor pressure raised to 20° C. ([1]; PVS at −15° C. raised to 20° C.) [hPa]	Pi-C3F7CN pressure corresponding to the saturated vapor pressure raised to 20° C. ([1]; PVS at −20° C. raised to 20° C.) [hPa]	Pi-C3F7CN pressure corresponding to the saturated vapor pressure raised to 20° C. ([1]; PVS at −25° C. raised to 20° C.) [hPa]	Pi-C3F7CN pressure corresponding to the saturated vapor pressure raised to 20° C. ([1]; PVS at −30° C. raised to 20° C.) [hPa]	Pi-C3F7CN pressure corresponding to the saturated vapor pressure raised to 20° C. ([1]; PVS at −35° C. raised to 20° C.) [hPa]	Pi-C3F7CN pressure corresponding to the saturated vapor pressure raised to 20° C. ([1]; PVS at −40° C. raised to 20° C.) [hPa]	PVSi-C3F7CN saturated vapor pressure ([1]; −5° C.) [hPa]	PVSi-C3F7CN saturated vapor pressure ([1]; −10° C.) [hPa]	PVSi-C3F7CN saturated vapor pressure ([1]; −15° C.) [hPa]	PVSi-C3F7CN saturated vapor pressure ([1]; −20° C.) [hPa]	PVSi-C3F7CN saturated vapor pressure ([1]; −25° C.) [hPa]	PVSi-C3F7CN saturated vapor pressure ([1]; −30° C.) [hPa]	PVSi-C3F7CN saturated vapor pressure ([1]; −35° C.) [hPa]	PVSi-C3F7CN saturated vapor pressure ([1]; −40° C.) [hPa]	boiling point [2] [°C]	boiling point [3] [°C]
N#CC(F)(C(F)(F)F)C(F)(F)F [i-C3F7CN, 2,3,3,3-tetrafluoro-2-trifluoromethyl propanenitrile]	1177	1264	1058	877	720	583	466	368	286	218	968	788	634	504	395	305	232	173	−4.7	
O=C(C(F)(F)C(F)(F)F)C(F)(C(F)(F)F)C(F)(F)F [fluoroketone C6]																				49
O=C(C(F)(F)F)C(F)(C(F)(F)F)C(F)(F)F [fluoroketone C5]																				23
